In ChEMBL document CHEMBL3217528, “Bicyclic imidazole-4-one derivatives: a new class of antagonists for the orphan G protein-coupled receptors GPR18 and GPR55” (Medchemcomm, 2014):

molecular target: T1, N-arachidonyl glycine receptor (Homo sapiens) (UniProt Q14330); assay: Antagonist activity against human GPR18 expressed in CHO cells assessed as reduction in delta9-THC-induced beta-arrestin recruitment at 10 uM by beta-galactosidase enzyme fragment complementation method; type: cell-based
T1 sequence (whole entry): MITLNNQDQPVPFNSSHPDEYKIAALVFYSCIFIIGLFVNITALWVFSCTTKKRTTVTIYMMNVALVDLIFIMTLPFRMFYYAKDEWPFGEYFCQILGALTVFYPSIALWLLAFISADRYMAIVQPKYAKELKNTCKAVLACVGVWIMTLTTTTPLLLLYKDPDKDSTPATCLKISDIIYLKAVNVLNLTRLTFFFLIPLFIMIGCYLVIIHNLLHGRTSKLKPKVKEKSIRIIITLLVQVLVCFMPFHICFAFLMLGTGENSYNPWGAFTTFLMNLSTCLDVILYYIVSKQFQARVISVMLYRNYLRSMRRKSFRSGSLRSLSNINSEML

| Structure (SMILES) | inhibition [%] |
| --- | --- |
| O=C1N=C2SCCCN2/C1=C\C=C\c1ccccc1 | 2 |
| COc1cccc(/C=C2\N=C3SCCCN3C2=O)c1OC | 10 |
| CCOC(=O)COc1cccc(/C=C2\N=C3SCCCCN3C2=O)c1 | 22 |

molecular target: Cannabinoid receptor 1 (Rattus norvegicus, UniProt P20272); assay: Displacement of [3H]CP55,940 from CB1 receptor in rat brain cortical membranes; type: cell membranes
Sequence (P20272 whole entry): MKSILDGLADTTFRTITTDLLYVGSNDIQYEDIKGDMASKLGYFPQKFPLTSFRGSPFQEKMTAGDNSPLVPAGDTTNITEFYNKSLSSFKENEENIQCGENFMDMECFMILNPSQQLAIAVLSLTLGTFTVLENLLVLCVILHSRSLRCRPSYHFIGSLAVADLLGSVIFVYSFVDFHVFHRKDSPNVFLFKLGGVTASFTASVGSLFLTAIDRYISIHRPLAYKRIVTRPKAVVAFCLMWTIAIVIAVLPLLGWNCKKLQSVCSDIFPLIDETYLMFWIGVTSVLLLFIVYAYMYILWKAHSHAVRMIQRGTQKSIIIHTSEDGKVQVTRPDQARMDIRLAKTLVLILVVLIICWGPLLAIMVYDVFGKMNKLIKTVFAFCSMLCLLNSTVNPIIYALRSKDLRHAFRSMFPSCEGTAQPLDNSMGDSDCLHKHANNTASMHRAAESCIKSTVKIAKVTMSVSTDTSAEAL

| Structure (SMILES) | Ki [µM] |
| --- | --- |
| O=C1/C(=C/c2cccc(OCc3ccc(Cl)c(Cl)c3)c2)N=C2SCCCN12 | > 10 |
| Cc1ccc(C(=O)Oc2cccc(/C=C3\N=C4SCCCCN4C3=O)c2)cc1 | > 10 |
| O=C(Oc1cccc(/C=C2\N=C3SCCCN3C2=O)c1)c1ccc(Cl)cc1 | > 10 |
| O=C1N=C2SCCCN2/C1=C\C=C\c1ccccc1 | > 10 |
| CCOC(=O)COc1cccc(/C=C2\N=C3SCCCCN3C2=O)c1 | > 10 |

molecular target: T2, G-protein coupled receptor 55 (Homo sapiens, UniProt Q9Y2T6); assay: Antagonist activity against human GPR55 expressed in CHO cells assessed as reduction in LPI-induced beta-arrestin recruitment at 10 uM by beta-galactosidase enzyme fragment complementation method; type: cell-based
T2 sequence (Q9Y2T6 whole entry, the tested form may be a part): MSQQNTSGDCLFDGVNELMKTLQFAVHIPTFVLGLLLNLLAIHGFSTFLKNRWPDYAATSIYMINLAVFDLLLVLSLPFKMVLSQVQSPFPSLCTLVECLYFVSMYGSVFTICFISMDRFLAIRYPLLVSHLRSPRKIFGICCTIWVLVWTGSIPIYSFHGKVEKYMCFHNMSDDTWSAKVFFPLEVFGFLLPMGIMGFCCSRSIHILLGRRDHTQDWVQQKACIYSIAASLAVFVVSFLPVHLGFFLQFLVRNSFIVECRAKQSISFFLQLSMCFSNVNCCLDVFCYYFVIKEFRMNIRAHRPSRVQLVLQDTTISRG

| Structure (SMILES) | inhibition [%] |
| --- | --- |
| O=C1/C(=C/c2cccc(OCc3ccccc3Cl)c2)N=C2SCCCN12 | 45 |
| Cc1ccc(C(=O)Oc2cccc(/C=C3\N=C4SCCCCN4C3=O)c2)cc1 | 32 |
| O=C(Oc1cccc(/C=C2\N=C3SCCCN3C2=O)c1)c1ccc(Cl)cc1 | 16 |
| O=C1N=C2SCCCN2/C1=C\C=C\c1ccccc1 | 0 |
| CCOC(=O)COc1cccc(/C=C2\N=C3SCCCCN3C2=O)c1 | 4 |

molecular target: T3, Cannabinoid receptor 2 (Homo sapiens, UniProt P34972); assay: Displacement of [3H]CP55,940 from human recombinant CB2 receptor expressed in HEK293 cells at 10 uM; type: cell-based
T3 sequence (P34972 whole entry): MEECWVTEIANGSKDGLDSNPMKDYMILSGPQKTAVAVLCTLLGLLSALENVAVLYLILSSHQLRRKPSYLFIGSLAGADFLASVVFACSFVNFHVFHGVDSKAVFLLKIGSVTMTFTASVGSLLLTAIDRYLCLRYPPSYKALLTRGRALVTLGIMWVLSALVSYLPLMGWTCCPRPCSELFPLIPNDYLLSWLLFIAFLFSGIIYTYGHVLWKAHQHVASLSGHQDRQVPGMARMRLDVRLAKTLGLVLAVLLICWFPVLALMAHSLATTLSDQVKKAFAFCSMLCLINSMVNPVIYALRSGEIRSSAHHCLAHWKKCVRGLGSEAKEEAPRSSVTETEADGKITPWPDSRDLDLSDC

| Structure (SMILES) | inhibition [%] |
| --- | --- |
| O=C1/C(=C/c2cccc(OCc3ccc(Cl)c(Cl)c3)c2)N=C2SCCCN12 | 0 |
| O=C1/C(=C/c2cccc(OCc3ccccc3Cl)c2)N=C2SCCCN12 | 9 |
| O=C(Oc1cccc(/C=C2\N=C3SCCCN3C2=O)c1)c1ccc(Cl)cc1 | 0 |
| O=C1N=C2SCCCN2/C1=C\C=C\c1ccccc1 | 19 |
| COc1cccc(/C=C2\N=C3SCCCN3C2=O)c1OC | 15 |
| CCOC(=O)COc1cccc(/C=C2\N=C3SCCCCN3C2=O)c1 | 39 |

molecular target: T3, Cannabinoid receptor 2; assay: Displacement of [3H]CP55,940 from human recombinant CB2 receptor expressed in HEK293 cells; type: cell-based

| Structure (SMILES) | Ki [µM] |
| --- | --- |
| O=C1/C(=C/c2cccc(OCc3ccc(Cl)c(Cl)c3)c2)N=C2SCCCN12 | > 10 |
| O=C1/C(=C/c2cccc(OCc3ccccc3Cl)c2)N=C2SCCCN12 | > 10 |
| Cc1ccc(C(=O)Oc2cccc(/C=C3\N=C4SCCCCN4C3=O)c2)cc1 | 2.58 |
| O=C(Oc1cccc(/C=C2\N=C3SCCCN3C2=O)c1)c1ccc(Cl)cc1 | > 10 |
| O=C1N=C2SCCCN2/C1=C\C=C\c1ccccc1 | > 10 |
| COc1cccc(/C=C2\N=C3SCCCN3C2=O)c1OC | > 10 |
| CCOC(=O)COc1cccc(/C=C2\N=C3SCCCCN3C2=O)c1 | > 10 |

molecular target: T2, G-protein coupled receptor 55; assay: Antagonist activity against human GPR55 expressed in CHO cells assessed as reduction in LPI-induced beta-arrestin recruitment by beta-galactosidase enzyme fragment complementation method; type: cell-based

| Structure (SMILES) | IC50 [µM] |
| --- | --- |
| O=C1/C(=C/c2cccc(OCc3ccc(Cl)c(Cl)c3)c2)N=C2SCCCN12 | 11.8 |
| O=C1/C(=C/c2cccc(OCc3ccccc3Cl)c2)N=C2SCCCN12 | ≥ 10 |
| Cc1ccc(C(=O)Oc2cccc(/C=C3\N=C4SCCCCN4C3=O)c2)cc1 | > 10 |
| O=C(Oc1cccc(/C=C2\N=C3SCCCN3C2=O)c1)c1ccc(Cl)cc1 | > 10 |
| O=C1N=C2SCCCN2/C1=C\C=C\c1ccccc1 | > 10 |
| COc1cccc(/C=C2\N=C3SCCCN3C2=O)c1OC | 16.4 |
| CCOC(=O)COc1cccc(/C=C2\N=C3SCCCCN3C2=O)c1 | > 10 |

molecular target: T4, Cannabinoid receptor 1 (Homo sapiens, UniProt P21554); assay: Displacement of [3H]CP55,940 from human recombinant CB1 receptor expressed in CHO-K1 cells at 10 uM; type: cell-based
T4 sequence (P21554 whole entry): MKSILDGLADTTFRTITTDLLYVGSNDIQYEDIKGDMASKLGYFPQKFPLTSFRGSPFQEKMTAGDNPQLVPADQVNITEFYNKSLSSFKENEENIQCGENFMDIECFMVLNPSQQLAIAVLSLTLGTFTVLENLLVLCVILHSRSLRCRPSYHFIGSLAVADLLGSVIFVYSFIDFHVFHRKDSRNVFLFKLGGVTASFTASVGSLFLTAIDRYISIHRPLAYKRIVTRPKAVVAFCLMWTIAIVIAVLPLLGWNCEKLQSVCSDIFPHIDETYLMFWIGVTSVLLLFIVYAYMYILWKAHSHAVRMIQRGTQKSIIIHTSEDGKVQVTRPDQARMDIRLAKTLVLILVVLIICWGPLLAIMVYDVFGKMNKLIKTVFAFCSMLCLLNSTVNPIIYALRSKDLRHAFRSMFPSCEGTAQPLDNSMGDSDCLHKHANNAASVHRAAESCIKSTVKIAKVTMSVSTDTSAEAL

| Structure (SMILES) | inhibition [%] |
| --- | --- |
| O=C1/C(=C/c2cccc(OCc3ccc(Cl)c(Cl)c3)c2)N=C2SCCCN12 | 15 |
| O=C1/C(=C/c2cccc(OCc3ccccc3Cl)c2)N=C2SCCCN12 | 0 |
| Cc1ccc(C(=O)Oc2cccc(/C=C3\N=C4SCCCCN4C3=O)c2)cc1 | 35 |
| O=C(Oc1cccc(/C=C2\N=C3SCCCN3C2=O)c1)c1ccc(Cl)cc1 | 12 |
| O=C1N=C2SCCCN2/C1=C\C=C\c1ccccc1 | 26 |
| COc1cccc(/C=C2\N=C3SCCCN3C2=O)c1OC | 18 |

molecular target: T2, G-protein coupled receptor 55; assay: Agonist activity at human GPR55 expressed in CHO cells assessed as induction of LPI-induced beta-arrestin recruitment by beta-galactosidase enzyme fragment complementation method relative to LPI; type: cell-based; set-up: concentration or dose not given beside the values

| Structure (SMILES) | Activity [%] |
| --- | --- |
| O=C1/C(=C/c2cccc(OCc3ccc(Cl)c(Cl)c3)c2)N=C2SCCCN12 | 4 |
| O=C1/C(=C/c2cccc(OCc3ccccc3Cl)c2)N=C2SCCCN12 | 10 |
| Cc1ccc(C(=O)Oc2cccc(/C=C3\N=C4SCCCCN4C3=O)c2)cc1 | 25 |
| O=C(Oc1cccc(/C=C2\N=C3SCCCN3C2=O)c1)c1ccc(Cl)cc1 | 31 |
| O=C1N=C2SCCCN2/C1=C\C=C\c1ccccc1 | 59 |
| COc1cccc(/C=C2\N=C3SCCCN3C2=O)c1OC | 0 |
| CCOC(=O)COc1cccc(/C=C2\N=C3SCCCCN3C2=O)c1 | 0 |

molecular target: T5, N-arachidonyl glycine receptor (Homo sapiens, UniProt Q14330); assay: Antagonist activity against human GPR18 expressed in CHO cells assessed as reduction in delta9-THC-induced beta-arrestin recruitment by beta-galactosidase enzyme fragment complementation method; type: cell-based
T5 sequence (Q14330 whole entry): T1 sequence (whole entry)

| Structure (SMILES) | IC50 [µM] |
| --- | --- |
| O=C1/C(=C/c2cccc(OCc3ccc(Cl)c(Cl)c3)c2)N=C2SCCCN12 | 6.16 |
| O=C1/C(=C/c2cccc(OCc3ccccc3Cl)c2)N=C2SCCCN12 | 1.65 |
| Cc1ccc(C(=O)Oc2cccc(/C=C3\N=C4SCCCCN4C3=O)c2)cc1 | 6.45 |
| O=C(Oc1cccc(/C=C2\N=C3SCCCN3C2=O)c1)c1ccc(Cl)cc1 | 14.3 |
| O=C1N=C2SCCCN2/C1=C\C=C\c1ccccc1 | > 10 |
| COc1cccc(/C=C2\N=C3SCCCN3C2=O)c1OC | > 10 |
| CCOC(=O)COc1cccc(/C=C2\N=C3SCCCCN3C2=O)c1 | > 10 |

molecular target: T4, Cannabinoid receptor 1; assay: Displacement of [3H]CP55,940 from human recombinant CB1 receptor expressed in CHO-K1 cells; type: cell-based

| Structure (SMILES) | Ki [µM] |
| --- | --- |
| O=C1/C(=C/c2cccc(OCc3ccc(Cl)c(Cl)c3)c2)N=C2SCCCN12 | > 10 |
| O=C1/C(=C/c2cccc(OCc3ccccc3Cl)c2)N=C2SCCCN12 | > 10 |
| Cc1ccc(C(=O)Oc2cccc(/C=C3\N=C4SCCCCN4C3=O)c2)cc1 | > 10 |
| O=C(Oc1cccc(/C=C2\N=C3SCCCN3C2=O)c1)c1ccc(Cl)cc1 | > 10 |
| O=C1N=C2SCCCN2/C1=C\C=C\c1ccccc1 | > 10 |
| COc1cccc(/C=C2\N=C3SCCCN3C2=O)c1OC | > 10 |
| CCOC(=O)COc1cccc(/C=C2\N=C3SCCCCN3C2=O)c1 | 4.78 |

molecular target: T1, N-arachidonyl glycine receptor (Homo sapiens); assay: Agonist activity at human GPR18 expressed in CHO cells assessed as induction of beta-arrestin recruitment by beta-galactosidase enzyme fragment complementation method relative to delta9-THC; type: cell-based; set-up: concentration or dose not given beside the values

| Structure (SMILES) | Activity [%] |
| --- | --- |
| O=C1/C(=C/c2cccc(OCc3ccc(Cl)c(Cl)c3)c2)N=C2SCCCN12 | 0 |
| O=C1/C(=C/c2cccc(OCc3ccccc3Cl)c2)N=C2SCCCN12 | 8 |
| Cc1ccc(C(=O)Oc2cccc(/C=C3\N=C4SCCCCN4C3=O)c2)cc1 | 0 |
| O=C(Oc1cccc(/C=C2\N=C3SCCCN3C2=O)c1)c1ccc(Cl)cc1 | 0 |
| O=C1N=C2SCCCN2/C1=C\C=C\c1ccccc1 | 9 |
| COc1cccc(/C=C2\N=C3SCCCN3C2=O)c1OC | 10 |
| CCOC(=O)COc1cccc(/C=C2\N=C3SCCCCN3C2=O)c1 | 19 |

molecular target: Cannabinoid receptor 1 (Rattus norvegicus) (UniProt P20272); assay: Displacement of [3H]CP55,940 from CB1 receptor in rat brain cortical membranes at 10 uM; type: cell membranes
Sequence (P20272 whole entry): as the sequence (P20272 whole entry) above

| inhibition [%] | Structure (SMILES) |
| --- | --- |
| 4 | Cc1ccc(C(=O)Oc2cccc(/C=C3\N=C4SCCCCN4C3=O)c2)cc1 |
| 27 | CCOC(=O)COc1cccc(/C=C2\N=C3SCCCCN3C2=O)c1 |

| Structure (SMILES) | inhibition [%] |
| --- | --- |
| O=C(Oc1cccc(/C=C2\N=C3SCCCN3C2=O)c1)c1ccc(Cl)cc1 | 24 |
